How the values were obtained:
C33a cells [1] = experiment: TUNEL apoptosis assay, C33A; type: cell-based; settings: 120 M (so in the source), 48 hours, flow cytometry
Description: (§1) To determine whether the compound 7291-0042 induces apoptosis in HPV-positive cervical cancer cell lines, HeLa cells and the HPV-negative cell line C33A were used. HeLa and C33A cells were seeded at 1-2×10^6 in 10-cm dishes and allowed to adhere and grow to 80-90% confluency. Compound 7291-0042 at a concentration of 60 μM, 80 μM, 100 μM, 120 μM, or DMSO was added to the cells 24 hours after plating and incubated for 48 hours. TUNEL assay was performed for the specific quantitation of apoptotic cells within a cell population using the DeadEnd Fluorometric TUNEL System from Promega (Madison, Wis.). Briefly, the cells were harvested by trypsinization and washed in PBS. Cells were then fixed in 4% formalin and incubated in buffer containing nucleotides and rTdT enzyme for 1 hour at 37° C. After terminating the reaction by adding EDTA, cells were washed with PBS and permeabilized with Triton X-100 and propidium iodide was added to stain all the cells. Cells were then analyzed by flow cytometery. Apoptosis signal was quantified by measuring green fluorescence of fluorescein-12-dUTP at 520±20 nm and red fluorescence of propidium iodide at >620 nm.

[2] = molecular target: T1, MAGI-1 PDZ domain 1 (interaction with HPV E6 protein) (Homo sapiens, UniProt Q96QZ7); experiment: matrix/array PDZ/PL competition assay, titration, Magi1 d1; type: binding; settings: compared with the other PDZ domains and compounds of Table 1
T1 construct: MAGI-1 PDZ domain 1 was used as a target for rational drug design
Description: The best hits from in silico screening were subject to screening in a matrix/array competition assay format, i.e., assays where docking of ligands to solid phase PDZ domain in fusion proteins was assessed in the presence and absence of the small molecule competitor as described elsewhere. The compounds were screened for inhibition of the PDZ/PL interactions.
The small molecules were considered as hits based on the OD450 readout of the assay. The best of the hits in this analysis were then subject to titration binding studies, i.e., titration of compounds in the same competition assay to estimate the IC50 value.

[3] = test system: p53 tumor suppressor protein; experiment: p53 protein expression by immunocytochemistry in HeLa cells; type: cell-based; settings: 80-120 μM, 24 hours, vs DMSO control
Description: To determine whether the compound 7291-0042 has an effect on p53 protein expression, cervical cancer cell line HeLa was used. HeLa cells were seeded, allowed to adhere and grown to 0.5×10^6 cells per well. 1 ml of compound 7291-0042 at a concentration of 80 μM, 100 μM, 120 μM, or DMSO was added to the cells 24 hours after plating and incubated for 24 hours. Immunocytochemistry with anti-p53 monoclonal antibody was performed to determine the relative amounts of the p53 protein present in the different cell samples.

E6 protein (HPV18-E6) = experiment: E6 oncoprotein expression by Western blot in HeLa cells; type: cell-based; settings: 60-120 μM, 24 hours, vs DMSO control and untreated cells
Description: To determine whether the compound 7291-0042 has an effect on E6 protein expression, cervical cancer cell line HeLa was used. HeLa cells were seeded, allowed to adhere and grown to 0.5×10^6 cells per well. Compound 7291-0042 at a concentration of 60 μM, 80 μM, 100 μM, 120 μM, or DMSO was added to the cells 24 hours after plating and incubated for 24 hours. Cells that were untreated served as an additional control. Western blot was performed to determine the relative amounts of the E6 protein present in the different samples. Briefly, the cells were homogenized in a lysate buffer and the protein samples were separated using SDS-PAGE and transferred to a membrane for detection. The membrane was incubated with an anti-HPV18-E6 antibody, labeled with a secondary antibody-enzyme conjugate and detected. To ensure that the amount of protein loaded for each sample was similar, the membrane was stripped and labeled with an antibody that recognizes a protein encoding a housekeeping gene. For this experiment, an antibody against glyceraldehyde-3-phosphate dehydrogenase (GAPDH) was used.

3Y1 pBlast-E6-16 cells [4] = experiment: cell proliferation assay; type: cell-based, rat; settings: 40 μM; compared with 3Y1 pBlast E6-16 ΔPL and 3Y1 pBlast
Description: Compound 7291-0042 was further analyzed for its ability to block the development of other cancerous characteristics in cells by a cell proliferation assay. The three cell lines described in the Example 2 were seeded onto a 12-well plate, and allowed to adhere and grow to confluent (about 24 hours) in EMEM media with 10% FBS and non-essential amino acids. 100 μl of compound 7291-0042 at concentrations 0 μM, 20 μM, 40 μM, and 80 μM was applied to the cells. The cells were measured at 24, 48, 72 and 96 hours after addition of the compound.

HeLa cells [5] = experiment: WST-1 cytotoxicity assay, HeLa; type: cell-based; settings: 60 μM, HPV-positive cervical cancer cell line
Description: (§2) To determine the cytotoxicity of the compound 7291-0042, drug toxicity studies were performed in HPV-positive (E6 transformed) cervical cancer cell lines SiHa and HeLa and HPV-negative cervical cancer cell line […]. […] and SiHa cells were seeded onto a 12-well plate, allowed to adhere and grown to 10,000 cells per well. HeLa cells were seeded, allowed to adhere and grown to 5,000 cells per well. 100 μl of compound 7291-0042 at a concentration of 60 μM or DMSO was added to the cells 24 hours after plating. Cytotoxicity of the cells was assessed by the WST-1 calorimetric assay. In brief, the calorimetric assay is based on the cleavage of the tetrazolium salt WST-1 to a formazan-class dye by mitochondrial succinate-tetrazolium reductase in viable cells. As the cells proliferate, more WST-1 is converted to the formazan product. The quantity of formazan dye is directly related to the number of metabolically active cells, and can be quantified by measuring the absorbance at 420-480 nm (Amax 450 nm) in a multiwell plate reader.

SiHa cells = experiment: WST-1 cytotoxicity assay, SiHa; type: cell-based; settings: 60 μM, HPV-positive cervical cancer cell line
Description: as §2

HeLa cells [6] = experiment: TUNEL apoptosis assay, HeLa; type: cell-based; settings: 120 M (so in the source), 48 hours, flow cytometry
Description: as §1

3Y1 pBlast-E6-16 cells [7] = experiment: cell migration assay (96-well filter plate); type: cell-based, rat; settings: 40 μM, 24 hours, OD560; compared with 3Y1 pBlast E6-16 ΔPL cells
Description: The effect of compound 7291-0042 on the rate of cell migration and proliferation was determined on three different cell lines, 3Y1 pBlast, 3Y1 pBlast-E6-16 and 3Y1 pBlast E6-16 ΔPL.
Plasmid constructs of HPV E6-16 (wild type) and HPV E6-16 ΔPL were generated using the vector pBlast (InvivoGen, Toulouse, France). Recombinant plasmids were generated by recombinant DNA cloning methods known in the art.
These constructs were transfected into rat 3Y1 primary cells using the LipofectAMINE™ 2000 Reagent (Invitrogen Cat#11668-027) and accompanying protocol. pBlast without insert was transfected as a negative control. Cells were incubated at 37° in RPMI media with non-essential amino acids, 10% FBS, and 1 ug/mL […] until confluent (about 4 days).
Each of the three transfected cell lines were seeded onto a 96-well filter plate with a feeder tray and lid in RPMI media with a gradient of 0.5% to 10% FBS and non-essential amino acids. Three different treatments were applied to the cell lines. The cells were treated with either 40 μM or 60 μM of the compound 7291-0042, or DMSO. […] The undersides of the filters were left uncoated. […] Cell migration through the membrane was quantified by staining the cells that attach to the lower side of the membrane with a colorometric dye at OD560 after 24 hours with a microplate reader.

C33a cells [8] = experiment: WST-1 cytotoxicity assay, C33a; type: cell-based; settings: 60 μM, HPV-negative cervical cancer cell line
Description: as §2

T1 sequence (Q96QZ7 472-554 limits assumed): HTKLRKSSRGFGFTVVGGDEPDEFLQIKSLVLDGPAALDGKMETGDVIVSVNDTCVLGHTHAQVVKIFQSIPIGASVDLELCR

**Q.** Which results are given for CCc1cccc2c(C(c3ccccc3OCC(=O)O)c3c[nH]c4c(CC)cccc34)c[nH]c12 [7291-0042]?
**A.** apoptotic cells, C33A (C33a cells [1]): 4%; specificity of disruption of the interaction between HPV E6 protein and MAGI-1 PDZ1 [2]: greatest specificity; amount of p53 tumor suppressor protein [3]: increased; amount of E6 onco protein (E6 protein (HPV18-E6)): decreased; rate of cell proliferation (3Y1 pBlast-E6-16 cells [4]): restored baseline rate of cell proliferation; cytotoxicity, HeLa cells (HeLa cells [5]): selectively killed; cytotoxicity, SiHa cells (SiHa cells): selectively killed; apoptotic cells, HeLa (HeLa cells [6]): 20%; rate of cell migration (3Y1 pBlast-E6-16 cells [7]): restored baseline cell migration; cytotoxicity, C33a cells (C33a cells [8]): remained viable

From US20090118301A1, “Compositions and Methods for Treating Cancer” (Arbor Vita Corporation, priority 2007, published 2009)
